In patent publication US10308682B2, “Inhibition of tumor growth with aggregates of small molecules” (BRANDEIS UNIVERSITY, priority 2013, dated 2019):

How the values were obtained:
HeLa cells [1] = experiment: Tubulin staining (tubulin tracker), HeLa cells; type: cell-based; conditions: 24 h
Experimental: Cells in exponential growth phase were seeded in glass bottomed culture chamber at 10,000 cell/mL. The cells were allowed for attachment for 24 h at 37° C., 5% CO2. The culture medium was removed, and new culture medium containing 1 at 0 or 400 μM was added. After 24 h of incubation, cells were washed with PBS buffer for 3 times and stained by Tubulin Tracker™ Green at 100 nM and DAPI 300 nM in PBS for 30 min at 37° C. in dark. The sample was rinsed three times in PBS, and the cells were kept in PBS for imaging.
To confirm that the aggregates of 1 clusters multiple tubulin heterodimers and inhibit the formation of microtubules inside live cells, we used a tubulin tracker that selectively binds to tubulin polymers (microtubules) over tubulin monomers to stain the HeLa cells treated with 1 at different concentrations for 24 h. […] As the tubulin tracker only stains microtubule (i.e., polymerized tubulin heterodimers), the fluorescence from the cluster indicates the tubulin heterodimers in the clusters are short microtubules. […] The loss of microtubules induced by molecular aggregates of 1 explains the origins of the delay of cell migration and the arrest of cell-cycle in HeLa cells incubated with 400 or 500 μM of 1.

T98G = experiment: Cell viability assay (MTT), T98G; type: cell-based
Experimental: (§1) Cells in exponential growth phase were seeded in a 96 well plate at a concentration of 50,000 cell/well. The cells were allowed to attach to the wells for 24 h at 37° C., 5% CO2, then the culture medium was removed and 100 μL new culture medium containing 1 at gradient concentrations was placed into each well. After culturing at 37° C., 5% CO2 for desired time, each well was added by 10 μL of 5 mg/mL MTT 43-(4,5-Dimethylthiazol-2-yl)-2,5-diphenyltetrazolium bromide), and the plated cells were incubate at dark for 4 h. 100 μL 10% SDS with 0.01 M HCl was added to each well to stop the reduction reaction and to dissolve the purple. After incubation of the cells at 37° C. for overnight, the viability is measured. Data represent the mean±standard deviation of three independent experiments.
(§2) The estimation of the threshold concentration of aggregation (320-340 μM) for 1 allows us to examine the cytotoxicity of 1 in monomer and molecular aggregate forms. We first tested the cytotoxicity of 1 towards HeLa cells, the most widely studied cancer cell line, below and above the threshold concentration.

HeLa cells [2] = experiment: Degradation of 1 in HeLa cells (LC-MS); type: in vitro ADME; conditions: 12 h at 37° C.
Experimental: FIG. 17 depicts the degradation of 1 in HeLa cells. HeLa cells were lysed after incubation with 1 at different concentrations for 12 h at 37° C. The fragmental residue of 1 detected and quantified by LC-MS was (S)-2-(2-(naphthalen-2-yl) acetamido)-3-phenylpropanoic acid.

MCF-7 = experiment: Cell viability assay (MTT), MCF-7; type: cell-based
Experimental: as §1, §2

T98G cells = experiment: Tubulin staining (tubulin tracker), T98G cells; type: cell-based; conditions: 400 μM, 24 h
Capan-2 = experiment: Cell viability assay (MTT), Capan-2; type: cell-based
Experimental: as §1, §2

HeLa cells [3] = experiment: Cell migration assay of HeLa cells; type: cell-based; conditions: 18 h
Experimental: FIG. 3 depicts the response of cancer cells toward molecular aggregates of 1. (a) Intracellular concentration of 1 in HeLa cells treated with 1 for 12 h at different temperatures measure by LC-MS (left bar=37° C.; right bar=4° C.). (b) Confocal images of FITC annexin V and PI stained HeLa cells without incubation with 1 (live cells), HeLa cells treated with 400 μM of 1 for 36 h, and necrotic HeLa cells (induced by DMSO). Scale bar=20 μm. (c) Fluorescence emission of 7-AAD and 1 in cell lysate (15,000 cell/mL) at λex=488 nm. (d) Cell cycle analysis, by flow cytometry, of HeLa cells treated with 0, 300 or 400 μM of 1 for 24 h. Depletion of G2/M phase occurs in cells treated with 400 μM of 1. (e) Cell migration assay of HeLa cells treated with 0, 300, 400 or 500 μM of 1. The gaps were created on the HeLa cells of 100% confluence in 24 well plates, and measured after incubation for 18 h.
Because apoptosis associates with cell cycle, we examined the effect of the aggregates of 1 on the cell cycle. […] The cell-cycle distribution of the HeLa cells incubated with 400 μM of 1 indicates significant decrease of the peaks of S phase and G2/M phase. […] The slight right shift of the whole spectra results from the overlapping of emission of 7-AAD and 1 (FIG. 3c). But such shift barely hampers the distribution of cell-cycle of the spectra. The aggregates of 1 also delay the migration of the HeLa cells.

tau = experiment: Hydrogel based protein pull-down assay, tau; type: binding; conditions: protein mass-spectrometry
Experimental: One reason is that PC12 cells have slower metabolism and growth (e.g., doubling every 72 h) than that of cancer cells. […] Another reason is that, PC12 cells, as a neuronal cell, have abundant amount of microtubule-stabilizing proteins (e.g., tau and MAP2) to promote tubulin polymerization and stabilize microtubules. […] Therefore, the existence of microtubule-stabilizing proteins in neurons can counter the effect of the molecular aggregates of 1, which is consistent with that PC12 cells, incubated with 1 at 400 μM (FIG. 5p), still display intact microtubule network. These two effects together, protect the PC12 cells from cytotoxicity induced by molecular aggregates of 1 (FIG. 7).
4×10^7 of HeLa cells were scrapped from petri dish and washed with PBS buffer for 3 times then centrifuged at 300 g for 5 minutes. The collected cell pellet was mixed with phosphate buffer (100 mM) then snap freeze and thaw for 3 cycles to lyse the cells. The cell lysate was clarified by centrifugation at 12,000 g for 20 min at 4° C. to remove the whole cells, nuclei and large mitochondria. 50 μL of the supernatant lysate was gently mixed with 30 μL hydrogel of 1 (10 mM in PBS buffer, pH 7.6) on rotator at RT for 30 min. The hydrogel was collected by centrifugation (12,000 g, 5 min, 4° C.) and the supernatant was collected and placed on ice before analysis. […]

O=C(Cc1ccc2ccccc2c1)N[C@@H](Cc1ccccc1)C(=O)N[C@@H](Cc1ccccc1)C(=O)O [Compound 1]
microtubule morphology (HeLa cells [1]; 200 μM): essentially the same morphology and distribution as those in the control cells
microtubule morphology (HeLa cells [1]; 300 μM): a small amount of the microtubules appear to be shorter than those in the control cells
microtubule morphology (HeLa cells [1]; 400 μM): large clusters surrounded by scattered microtubule fibrils
microtubule morphology (HeLa cells [1]; 400 μM, medium filtered by 0.22 μm PVDF membrane): (almost) normal microtubule networks, with only few clusters
cytotoxicity towards T98G (T98G): decreases of cell viabilities only observed at 400 and 500 μM
degradation of 1 (HeLa cells [2]): rather fast
cytotoxicity towards MCF-7 (MCF-7): decreases of cell viabilities only observed at 400 and 500 μM
microtubule morphology (T98G cells): disrupted microtubule network
cytotoxicity towards Capan-2 (Capan-2): decreases of cell viabilities only observed at 400 and 500 μM
gap coverage by migrating cells (HeLa cells [3]; 300 μM): 47 % of the gaps
gap coverage by migrating cells (HeLa cells [3]; 400 or 500 μM): 27 % of the gaps
interaction of aggregates of 1 with tau (tau): little or no interaction
